Like-named read-outs stand apart in the source and are kept apart here.
Biological target: GST-Bc1-2 (Homo sapiens, UniProt P10415)
Test: Time Resolved-Fluorescence Resonance Energy Transfer (TR-FRET) Bcl-2 binding assay with F-Bak peptide probe
[1] = GST-Bcl-2 1 nM, F-Bak probe 100 nM, Tb-anti-GST 1 nM, '<' = below limit of detection, read-out: TR-FRET Bcl-2 Binding Ki
[2] = Table 4, selected compounds of Ser. No. 12/631,404, read-out: Bcl-2 FRET Ki
[3] = Table 5, direct comparison Z=N vs Z=C analogs, read-out: Bcl-2 FRET ki

Sequence of GST-Bc1-2 (P10415 whole entry): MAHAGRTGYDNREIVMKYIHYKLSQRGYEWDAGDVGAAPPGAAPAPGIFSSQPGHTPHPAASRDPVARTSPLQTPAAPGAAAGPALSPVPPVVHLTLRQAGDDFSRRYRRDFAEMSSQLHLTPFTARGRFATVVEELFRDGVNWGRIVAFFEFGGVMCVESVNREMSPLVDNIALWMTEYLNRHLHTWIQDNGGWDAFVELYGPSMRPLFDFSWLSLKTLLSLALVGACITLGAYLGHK

| Compound | Ki [1] | Ki [2] | Ki [3] |
| --- | --- | --- | --- |
| COCCNc1ccc(S(=O)(=O)NC(=O)c2ccc(N3CCN(CC4=C(c5ccc(Cl)cc5)CC(C)(C)CC4)CC3)cc2Oc2ccc3[nH]ccc3c2)cc1[N+](=O)[O-] [Example 20, 4-(4-{[2-(4-chlorophenyl)-4,4-dimethylcyclohex-1-en-1-yl]methyl}piperazin-1-yl)-2-(1H-indol-5-yloxy)-N-({4-[(2-methoxyethyl)amino]-3-nitrophenyl}sulfonyl)benzamide] | 181 pM | 181 pM | 181 pM |
| CC1(C)CCC(CN2CCN(c3ccc(C(=O)NS(=O)(=O)c4ccc(NC5CCN(CC(F)(F)F)CC5)c([N+](=O)[O-])c4)c(Oc4cnc5[nH]ccc5c4)c3)CC2)=C(c2ccc(Cl)cc2)C1 [Example 83, 4-(4-{[2-(4-chlorophenyl)-4,4-dimethylcyclohex-1-en-1-yl]methyl}piperazin-1-yl)-N-[(3-nitro-4-{[1-(2,2,2-trifluoroethyl)piperidin-4-yl]amino}phenyl)sulfonyl]-2-(1H-pyrrolo[2,3-b]pyridin-5-yloxy)benzamide] | 71 pM | – | – |
| CC1(C)CCC(CN2CCN(c3ccc(C(=O)NS(=O)(=O)c4ccc(NCC5CCC(F)(F)CC5)c([N+](=O)[O-])c4)c(Oc4cnc5[nH]ccc5c4)c3)CC2)=C(c2ccc(Cl)cc2)C1 [Example 239, 4-(4-{[2-(4-chlorophenyl)-4,4-dimethylcyclohex-1-en-1-yl]methyl}piperazin-1-yl)-N-[(4-{[(4,4-difluorocyclohexyl)methyl]amino}-3-nitrophenyl)sulfonyl]-2-(1H-pyrrolo[2,3-b]pyridin-5-yloxy)benzamide] | 26 pM | – | – |
| CC1(C)CCC(CN2CCN(c3ccc(C(=O)NS(=O)(=O)c4ccc(N[C@H]5CC[C@H](N6CCOCC6)CC5)c([N+](=O)[O-])c4)c(Oc4ccc5[nH]ccc5c4)c3)CC2)=C(c2ccc(Cl)cc2)C1 [Example 19, Trans-4-(4-{[2-(4-chlorophenyl)-4,4-dimethylcyclohex-1-en-1-yl]methyl}piperazin-1-yl)-2-(1H-indol-5-yloxy)-N-({4-[(4-morpholin-4-ylcyclohexyl)amino]-3-nitrophenyl}sulfonyl)benzamide] | 226 pM | 226 pM | 226 pM |
| CC1(C)CCC(CN2CCN(c3ccc(C(=O)NS(=O)(=O)c4ccc(N[C@@H]5CCOC5)c([N+](=O)[O-])c4)c(Oc4cnc5[nH]ccc5c4)c3)CC2)=C(c2ccc(Cl)cc2)C1 [Example 238, 4-(4-{[2-(4-chlorophenyl)-4,4-dimethylcyclohex-1-en-1-yl]methyl}piperazin-1-yl)-N-({3-nitro-4-[(3R)-tetrahydrofuran-3-ylamino]phenyl}sulfonyl)-2-(1H-pyrrolo[2,3-b]pyridin-5-yloxy)benzamide] | < 10 pM | – | – |
| CC1(C)CCC(CN2CCN(c3ccc(C(=O)NS(=O)(=O)c4ccc(NC5CCC(NC6CC6(F)F)CC5)c([N+](=O)[O-])c4)c(Oc4cnc5[nH]ccc5c4)c3)CC2)=C(c2ccc(Cl)cc2)C1 (centres unmarked) [Example 349, 4-(4-{[2-(4-chlorophenyl)-4,4-dimethylcyclohex-1-en-1-yl]methyl}piperazin-1-yl)-N-{[4-({4-[(2,2-difluorocyclopropyl)amino]cyclohexyl}amino)-3-nitrophenyl]sulfonyl}-2-(1H-pyrrolo[2,3-b]pyridin-5-yloxy)benzamide] | 23 pM | – | – |
| CC1(C)CCC(CN2CCN(c3ccc(C(=O)NS(=O)(=O)c4ccc(NCc5ccc(OC(F)F)cc5)c([N+](=O)[O-])c4)c(Oc4cnc5[nH]ccc5c4)c3)CC2)=C(c2ccc(Cl)cc2)C1 [Example 177, 4-(4-{[2-(4-chlorophenyl)-4,4-dimethylcyclohex-1-en-1-yl]methyl}piperazin-1-yl)-N-[(4-{[4-(difluoromethoxy)benzyl]amino}-3-nitrophenyl)sulfonyl]-2-(1H-pyrrolo[2,3-b]pyridin-5-yloxy)benzamide] | 111 pM | – | – |
| CC1(C)CCC(CN2CCN(c3ccc(C(=O)NS(=O)(=O)c4cnc(OCC5CCC(F)(F)CC5)c(Cl)c4)c(Oc4cnc5[nH]ccc5c4)c3)CC2)=C(c2ccc(Cl)cc2)C1 [Example 287, N-({5-chloro-6-[(4,4-difluorocyclohexyl)methoxy]pyridin-3-yl}sulfonyl)-4-(4-{[2-(4-chlorophenyl)-4,4-dimethylcyclohex-1-en-1-yl]methyl}piperazin-1-yl)-2-(1H-pyrrolo[2,3-b]pyridin-5-yloxy)benzamide] | 81 pM | – | – |
| CC1(C)CCC(CN2CCN(c3ccc(C(=O)NS(=O)(=O)c4ccc(OCC5(F)CCN(C6CC6)CC5)c([N+](=O)[O-])c4)c(Oc4cnc5[nH]ccc5c4)c3)CC2)=C(c2ccc(Cl)cc2)C1 [Example 173, 4-(4-{[2-(4-chlorophenyl)-4,4-dimethylcyclohex-1-en-1-yl]methyl}piperazin-1-yl)-N-({4-[(1-cyclopropyl-4-fluoropiperidin-4-yl)methoxy]-3-nitrophenyl}sulfonyl)-2-(1H-pyrrolo[2,3-b]pyridin-5-yloxy)benzamide] | < 10 pM | – | – |
| CC1(C)CCC(CN2CCN(c3ccc(C(=O)NS(=O)(=O)c4cnc(NC5CCN(C6CC6)CC5)c(Cl)c4)c(Oc4cnc5[nH]ccc5c4)c3)CC2)=C(c2ccc(Cl)cc2)C1 [Example 243, N-({5-chloro-6-[(1-cyclopropylpiperidin-4-yl)amino]pyridin-3-yl}sulfonyl)-4-(4-{[2-(4-chlorophenyl)-4,4-dimethylcyclohex-1-en-1-yl]methyl}piperazin-1-yl)-2-(1H-pyrrolo[2,3-b]pyridin-5-yloxy)benzamide] | 546 pM | – | – |
| CC1(C)CCC(CN2CCN(c3ccc(C(=O)NS(=O)(=O)c4ccc(NCCCN(C5CC5)C5COC5)c([N+](=O)[O-])c4)c(Oc4cnc5[nH]ccc5c4)c3)CC2)=C(c2ccc(Cl)cc2)C1 [Example 311, 4-(4-{[2-(4-chlorophenyl)-4,4-dimethylcyclohex-1-en-1-yl]methyl}piperazin-1-yl)-N-{[4-({3-[cyclopropyl(oxetan-3-yl)amino]propyl}amino)-3-nitrophenyl]sulfonyl}-2-(1H-pyrrolo[2,3-b]pyridin-5-yloxy)benzamide] | < 10 pM | – | – |
| CC1(C)CCC(CN2CCN(c3ccc(C(=O)NS(=O)(=O)c4ccc(NC5CCC6(CC5)OCCO6)c([N+](=O)[O-])c4)c(Oc4cnc5[nH]ccc5c4)c3)CC2)=C(c2ccc(Cl)cc2)C1 [Example 178, 4-(4-{[2-(4-chlorophenyl)-4,4-dimethylcyclohex-1-en-1-yl]methyl}piperazin-1-yl)-N-{[4-(1,4-dioxaspiro[4.5]dec-8-ylamino)-3-nitrophenyl]sulfonyl}-2-(1H-pyrrolo[2,3-b]pyridin-5-yloxy)benzamide] | 76 pM | – | – |
| CC1(C)CCC(CN2CCN(c3ccc(C(=O)NS(=O)(=O)c4cnc(OCC5CCC(N(C6CC6)C6COC6)CC5)c(Cl)c4)c(Oc4cnc5[nH]ccc5c4)c3)CC2)=C(c2ccc(Cl)cc2)C1 (centres unmarked) [Example 329, N-{[5-chloro-6-({4-[cyclopropyl(oxetan-3-yl)amino]cyclohexyl}methoxy)pyridin-3-yl]sulfonyl}-4-(4-{[2-(4-chlorophenyl)-4,4-dimethylcyclohex-1-en-1-yl]methyl}piperazin-1-yl)-2-(1H-pyrrolo[2,3-b]pyridin-5-yloxy)benzamide] | 30 pM | – | – |

Reference: patent US8580794B2 (AbbVie Inc., priority 2009, dated 2013)
